Measurements published in patent US9428455B2, “Process for annealing amorphous atorvastatin” (Pfizer Inc., priority 2005, dated 2016).
Counter-ions that a name gives are not always drawn.

Type: physicochemical
Description: The amorphous atorvastatin calcium was loaded into 20 ml glass vials (approximately 1 g per vial), and heated at 100±5° C. for 1, 6, and 18 hours in an oven. After heating, the powder was transferred from the vials to 15 ml amber screw-cap bottles, and set-up on stability at 50° C./20% RH. In addition, unannealed amorphous atorvastatin calcium, which was loaded in 15 ml amber screw-cap bottles, was placed on stability as a control.
The annealed amorphous atorvastatin calcium was analyzed for impurities and atorvastatin degradation products using HPLC, by evaluating the ratio of peak integration compared to the total integrated peak areas. […] The material was analyzed by HPLC (Zorbax SB C8 column, 25.0 cm×4.6 mm, HPLC: Hewlett Packard 1100 series, 20 μl injection volume, flow of 1.5 mL/min). […]
Stability data obtained for three annealed samples and the control sample are graphically illustrated in FIGS. 1 to 4. […] In order to express stabilization by annealing in a more quantitative term, relative degradation rate constants, krel, were determined from the data presented in FIGS. 1 to 4. The krel were calculated using Eq. 1: krel=(k/k0)*100% Eq. 1 where k is the zero order rate constant for annealed samples, and k0 is the zero order rate constant for the control sample; k and k0 were determined from the data presented in FIGS. 1 to 4.

CC(C)c1c(C(=O)Nc2ccccc2)c(-c2ccccc2)c(-c2ccc(F)cc2)n1CC[C@@H](O)C[C@@H](O)CC(=O)O (relative stereo) [amorphous atorvastatin calcium, [R—(R*,R*)]-2-(4-fluorophenyl)-β,δ-dihydroxy-5-(1-methylethyl)-3-phenyl-4-[(phenylamino)carbonyl]-1H-pyrrole-1-heptanoic acid calcium salt (2:1) trihydrate]
Relative degradation rate for total degradation products, less than in the control: 34%
